Test results published in patent publication US9850283B2, “Macrocyclic inhibitors of the PD-1/PD-L1 and CD80(B7-1)/PD-L1 protein/protein interactions” (BRISTOL-MYERS SQUIBB COMPANY, priority 2013, dated 2017).
Where two headings read alike, the source gives them in different places. Positions of bridges follow the written chain, without caps; N, C: chain ends. Non-standard residues stand in square brackets, D forms with d. Residues, ends and D or L forms follow the SMILES beside them. ξ: configuration not given here. Phe(3,4,5-F3) = N[C@@H](Cc1cc(F)c(F)c(F)c1)C(=O)O; Phe(4-Cl) = N[C@@H](Cc1ccc(Cl)cc1)C(=O)O; Pro(5S-Me) = C[C@H]1CC[C@@H](C(=O)O)N1; Bta = N[C@@H](Cc1csc2ccccc12)C(=O)O; NMeIle(3ξ) = CCC(C)[C@H](NC)C(=O)O; Hyp = O=C(O)[C@@H]1C[C@@H](O)CN1; NMeF = CN[C@@H](Cc1ccccc1)C(=O)O; hPhe = N[C@@H](CCc1ccccc1)C(=O)O; NMeE = CN[C@@H](CCC(=O)O)C(=O)O; Cha = N[C@@H](CC1CCCCC1)C(=O)O; NMeNle = CCCC[C@H](NC)C(=O)O; NMeM = CN[C@@H](CCSC)C(=O)O; NMeA = CN[C@@H](C)C(=O)O; Dab = NCC[C@H](N)C(=O)O; Dap = NC[C@H](N)C(=O)O; ξP = O=C(O)C1CCCN1; ξC = NC(CS)C(=O)O; Sar = CNCC(=O)O

How the values were obtained:
[1] = target: T1, Human PD-L1/PD-1 (Homo sapiens, UniProt Q9NZQ7); test: HTRF PD-1-Ig/PD-L1-His binding assay (human PD-L1)
T1 construct: made in house; host or cells: HEK293T
T1 sequence (Q9NZQ7 with tags, fused parts or gaps): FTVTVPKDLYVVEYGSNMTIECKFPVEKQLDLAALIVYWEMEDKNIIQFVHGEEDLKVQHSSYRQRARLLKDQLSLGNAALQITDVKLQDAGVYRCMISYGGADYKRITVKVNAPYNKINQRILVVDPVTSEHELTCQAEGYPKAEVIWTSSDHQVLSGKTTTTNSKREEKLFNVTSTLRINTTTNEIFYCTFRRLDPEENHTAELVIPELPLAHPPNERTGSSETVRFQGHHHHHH
Summary of the method: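 Interaction of Fc-tagged soluble PD-1 with His-tagged soluble PD-L1 is monitored by time-resolved FRET. Donor is europium cryptate anti-Ig (1 nM final) and acceptor is APC anti-His (20 nM final). Assay buffer is dPBS with 0.1% BSA and 0.05% Tween-20.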

[2] = target: T2, LK35.2-hPD-L1 cells / PE-labeled PD-1-Ig (Homo sapiens, UniProt Q9NZQ7); test: LK35.2-hPD-L1 cell binding high-content screening assay; type: cell-based
T2 construct: expressed in transfected cells; host or cells: LK35.2 mouse B cell line
T2 sequence (Q9NZQ7 19-290): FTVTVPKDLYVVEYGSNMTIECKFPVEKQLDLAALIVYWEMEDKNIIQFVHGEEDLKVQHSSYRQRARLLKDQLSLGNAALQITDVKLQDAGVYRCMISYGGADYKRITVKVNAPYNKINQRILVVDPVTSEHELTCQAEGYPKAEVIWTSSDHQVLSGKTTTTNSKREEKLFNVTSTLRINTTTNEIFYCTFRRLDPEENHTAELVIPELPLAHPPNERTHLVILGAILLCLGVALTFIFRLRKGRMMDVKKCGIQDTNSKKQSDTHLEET
Summary of the method: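 Using overnight-cultured LK35.2-hPD-L1 mouse B cells, compound was co-incubated with phycoerythrin-tagged human PD-1-Ig (final 1 nM) at 37 °C for one hour. Unbound label was removed by triple dPBS washing prior to high-content image acquisition and analysis.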

[3] = cluster symbol, read-out: HTRF IC50 cluster
[4] = cluster symbol, cell line of CBA not given (LK35.2-hPD-L1 or 293T-hPD-L1), read-out: CBA IC50 cluster
[5] = cell binding assay, cell line not given, cluster symbol, read-out: CBA IC50 cluster
[6] = value given instead of cluster, read-out: HTRF IC50 value
[7] = cell binding assay, cell line not given, value given instead of cluster, read-out: CBA IC50 value

Structure (SMILES) | IC50 [1, 3] | IC50 [2, 4] | IC50 [2, 5] | IC50 [1, 6] | IC50 [2, 7]
CCCC[C@H]1C(=O)N(C)CC(=O)N[C@@H](CC(=O)O)C(=O)N[C@@H](C(C)C)C(=O)N(C)[C@@H](Cc2ccccc2)C(=O)N[C@@H](Cc2ccc(O)cc2)C(=O)N(C)CC(=O)N[C@@H](Cc2c[nH]c3ccccc23)C(=O)N[C@@H](Cc2ccc(O)cc2)C(=O)N[C@@H](CC(C)C)C(=O)N[C@H](C(=O)NCC(N)=O)CSCC(=O)N[C@@H](Cc2cc(F)c(F)c(F)c2)C(=O)N(C)[C@@H](Cc2ccccc2)C(=O)N1C [Example 3144] ({CH2CO}-[Phe(3,4,5-F3)][NMeF][NMeNle][Sar]DV[NMeF]Y[Sar]WYLCG-NH2; thioether N-13) | 6.76 to 30.3 nM | 0.158 to 4.71 nM | – | – | –
CCCC[C@H]1C(=O)N[C@@H](CN)C(=O)N[C@H](C(=O)NCC(N)=O)CSCC(=O)N[C@@H](Cc2ccc(O)cc2)C(=O)N(C)[C@@H](C)C(=O)N[C@@H](CC(N)=O)C(=O)N2CCC[C@H]2C(=O)N[C@@H](Cc2c[nH]cn2)C(=O)N[C@@H](CCC(=O)O)C(=O)N2C[C@H](O)C[C@H]2C(=O)N[C@@H](Cc2c[nH]c3ccccc23)C(=O)N[C@@H](CCN)C(=O)N[C@@H](Cc2c[nH]c3ccccc23)C(=O)N(C)[C@@H](C(C)CC)C(=O)N1C (stereo partly shown) [Example 5146] ({CH2CO}-Y[NMeA]NPHE[Hyp]W[Dab]W[NMeIle(3ξ)][NMeNle][Dap]CG-NH2; thioether N-14) | 6.76 to 30.3 nM | – | 4.78 to 72.9 nM | – | –
CCCC[C@H]1C(=O)N(C)[C@@H](CCCC)C(=O)N[C@@H](CC(C)C)C(=O)N[C@H](C(=O)NCC(N)=O)CSCC(=O)N[C@@H](Cc2ccc(O)cc2)C(=O)N(C)[C@@H](C)C(=O)N[C@@H](CC(N)=O)C(=O)N2CCC[C@H]2C(=O)N[C@@H](CN)C(=O)N[C@@H](CC2CCCCC2)C(=O)N2C[C@H](O)C[C@H]2C(=O)N[C@@H](Cc2c[nH]c3ccccc23)C(=O)N[C@@H](CO)C(=O)N[C@@H](Cc2c[nH]c3ccccc23)C(=O)N1C [Example 5082] ({CH2CO}-Y[NMeA]NP[Dap][Cha][Hyp]WSW[NMeNle][NMeNle]LCG-NH2; thioether N-14) | 0.385 to 6.74 nM | – | 0.158 to 4.71 nM | – | –
CCCC[C@H]1C(=O)N(C)[C@@H](CCCC)C(=O)N[C@@H](CCCNC(=N)N)C(=O)NC(C(=O)NCC(N)=O)CSCC(=O)N[C@@H](Cc2ccc(O)cc2)C(=O)N(C)[C@@H](C)C(=O)N[C@@H](CC(N)=O)C(=O)N2[C@@H](C)CC[C@H]2C(=O)N[C@@H](Cc2cnc[nH]2)C(=O)N[C@@H](CC(C)C)C(=O)N2CCC[C@H]2C(=O)N[C@@H](Cc2c[nH]c3ccccc23)C(=O)N[C@@H](CO)C(=O)N[C@@H](Cc2c[nH]c3ccccc23)C(=O)N1C (stereo partly drawn) [Example 9017] ({CH2CO}-Y[NMeA]N[Pro(5S-Me)]HLPWSW[NMeNle][NMeNle]R[ξC]G-NH2; thioether N-14) | 6.76 to 30.3 nM | – | 4.78 to 72.9 nM | – | –
CCCC[C@H]1C(=O)N(C)[C@@H](C)C(=O)N[C@@H](CCCNC(=N)N)C(=O)NC(C(=O)NCC(N)=O)CSCC(=O)N[C@@H](Cc2ccc(O)cc2)C(=O)N(C)[C@@H](C)C(=O)N[C@@H](CC(N)=O)C(=O)N2CCC[C@H]2C(=O)N[C@@H](Cc2cnc[nH]2)C(=O)N[C@@H](CC(C)C)C(=O)N2C[C@H](O)C[C@H]2C(=O)N[C@@H](Cc2c[nH]c3ccccc23)C(=O)N[C@@H](CO)C(=O)N[C@@H](Cc2csc3ccccc23)C(=O)N1C (stereo partly shown) [Example 9058] ({CH2CO}-Y[NMeA]NPHL[Hyp]WS[Bta][NMeNle][NMeA]R[ξC]G-NH2; thioether N-14) | 0.385 to 6.74 nM | – | 0.158 to 4.71 nM | – | –
CCCC[C@H]1C(=O)N[C@@H](CCCNC(=N)N)C(=O)NC(C(=O)NCC(N)=O)CSCC(=O)N[C@@H](Cc2ccc(O)cc2)C(=O)N(C)[C@@H](C)C(=O)N[C@@H](CC(N)=O)C(=O)N2CCC[C@H]2C(=O)N[C@@H](Cc2cnc[nH]2)C(=O)N[C@@H](CC(C)C)C(=O)N2C[C@H](O)C[C@H]2C(=O)N[C@@H](Cc2c[nH]c3ccccc23)C(=O)N[C@@H](CO)C(=O)N[C@@H](Cc2csc3ccccc23)C(=O)N(C)[C@@H](CCSC)C(=O)N1C (stereo partly shown) [Example 9025] ({CH2CO}-Y[NMeA]NPHL[Hyp]WS[Bta][NMeM][NMeNle]R[ξC]G-NH2; thioether N-14) | 0.385 to 6.74 nM | – | 0.158 to 4.71 nM | – | –
CCCC[C@H]1C(=O)N(C)[C@@H](CCCC)C(=O)N[C@@H](CC(C)C)C(=O)N[C@H](C(=O)NCC(N)=O)CSCC(=O)N[C@@H](Cc2ccc(O)cc2)C(=O)N(C)[C@@H](C)C(=O)N[C@@H](CC(N)=O)C(=O)N2CCC[C@H]2C(=O)N[C@@H](Cc2c[nH]cn2)C(=O)NCC(=O)N2C[C@H](O)C[C@H]2C(=O)N[C@@H](Cc2c[nH]c3ccccc23)C(=O)N[C@@H](CO)C(=O)N[C@@H](Cc2c[nH]c3ccccc23)C(=O)N1C [Example 5122] ({CH2CO}-Y[NMeA]NPHG[Hyp]WSW[NMeNle][NMeNle]LCG-NH2; thioether N-14) | – | – | – | 34.8 nM | 134 nM
CCCC[C@H]1C(=O)N(C)[C@@H](CCCC)C(=O)N[C@@H](CCCNC(=N)N)C(=O)N[C@H](C(=O)NCC(N)=O)CSCC(=O)N[C@@H](Cc2ccccc2)C(=O)N(C)[C@@H](C)C(=O)N[C@@H](CC(N)=O)C(=O)N2CCC[C@H]2C(=O)N[C@@H](Cc2cnc[nH]2)C(=O)N[C@@H](Cc2c[nH]c3ccccc23)C(=O)N(C)CC(=O)N[C@@H](Cc2c[nH]c3ccccc23)C(=O)N[C@@H](CO)C(=O)N[C@@H](Cc2c[nH]c3ccccc23)C(=O)N1C [Example 6009] ({CH2CO}-F[NMeA]NPHW[Sar]WSW[NMeNle][NMeNle]RCG-NH2; thioether N-14) | – | – | – | 69.7 nM | 158 nM

Further lines, results first:

IC50 [1, 3] | IC50 [2, 4] | IC50 [2, 5] | IC50 [1, 6] | IC50 [2, 7] | Structure (SMILES)
> 30.5 nM | > 74.3 nM | – | – | – | CCCC[C@H]1C(=O)N(C)CC(=O)N[C@@H](CC(=O)O)C(=O)N[C@@H](C(C)C)C(=O)N(C)[C@@H](Cc2ccccc2)C(=O)N[C@@H](Cc2ccc(O)cc2)C(=O)N(C)CC(=O)N[C@@H](Cc2c[nH]c3ccccc23)C(=O)N[C@@H](Cc2ccc(O)cc2)C(=O)N[C@@H](CC(C)C)C(=O)N[C@H](C(=O)NCC(N)=O)CSCC(=O)N[C@@H](CCc2ccccc2)C(=O)N(C)[C@@H](Cc2ccccc2)C(=O)N1C [Example 3082] ({CH2CO}-[hPhe][NMeF][NMeNle][Sar]DV[NMeF]Y[Sar]WYLCG-NH2; thioether N-13)
> 30.5 nM | > 74.3 nM | – | – | – | CCCC[C@H]1C(=O)N(C)[C@@H](CCCC)C(=O)N[C@@H](CCCNC(=N)N)C(=O)N[C@H](C(=O)NCC(N)=O)CSCC(=O)N[C@@H](Cc2ccc(O)cc2)C(=O)N(C)[C@@H](CCC(=O)O)C(=O)N[C@@H](CC(N)=O)C(=O)N2CCC[C@H]2C(=O)N[C@@H](Cc2cnc[nH]2)C(=O)N[C@@H](CC(C)C)C(=O)N2CCC[C@H]2C(=O)N[C@@H](Cc2c[nH]c3ccccc23)C(=O)N[C@@H](CO)C(=O)N[C@@H](Cc2csc3ccccc23)C(=O)N1C [Example 1191] ({CH2CO}-Y[NMeE]NPHLPWS[Bta][NMeNle][NMeNle]RCG-NH2; thioether N-14)
0.385 to 6.74 nM | – | 0.158 to 4.71 nM | – | – | CCCC[C@H]1C(=O)N(C)[C@@H](CCCC)C(=O)N[C@@H](CCN)C(=O)N[C@H](C(=O)NCC(N)=O)CSCC(=O)N[C@@H](Cc2ccc(O)cc2)C(=O)N(C)[C@@H](C)C(=O)N[C@@H](CC(=O)O)C(=O)N2CCC[C@H]2C(=O)N[C@@H](Cc2cnc[nH]2)C(=O)N[C@@H](CCC(=O)O)C(=O)N2C[C@H](O)C[C@H]2C(=O)N[C@@H](Cc2c[nH]c3ccccc23)C(=O)N[C@@H](CO)C(=O)N[C@@H](Cc2c[nH]c3ccccc23)C(=O)N1C [Example 5029] ({CH2CO}-Y[NMeA]DPHE[Hyp]WSW[NMeNle][NMeNle][Dab]CG-NH2; thioether N-14)
6.76 to 30.3 nM | 4.78 to 72.9 nM | – | – | – | CCCC[C@H]1C(=O)N(C)[C@@H](CCCC)C(=O)N[C@@H](CC(=O)O)C(=O)N[C@H](C(=O)NCC(N)=O)CSCC(=O)N[C@@H](Cc2ccc(O)cc2)C(=O)N(C)[C@@H](C)C(=O)N[C@@H](CC(=O)O)C(=O)N2CCC[C@H]2C(=O)N[C@@H](Cc2c[nH]cn2)C(=O)N[C@@H](CCCNC(=N)N)C(=O)N2CCCC2C(=O)N[C@@H](Cc2c[nH]c3ccccc23)C(=O)N[C@@H](CCCNC(=N)N)C(=O)N[C@@H](Cc2c[nH]c3ccccc23)C(=O)N1C (stereo partly shown) [Example 1201] ({CH2CO}-Y[NMeA]DPHR[ξP]WRW[NMeNle][NMeNle]DCG-NH2; thioether N-14)
0.385 to 6.74 nM | – | 0.158 to 4.71 nM | – | – | CCCC[C@H]1C(=O)N(C)[C@@H](CCCC)C(=O)N[C@@H](CCCNC(=N)N)C(=O)N[C@H](C(=O)NCC(N)=O)CSCC(=O)N[C@@H](Cc2ccc(Cl)cc2)C(=O)N(C)[C@@H](C)C(=O)N[C@@H](CC(N)=O)C(=O)N2CCC[C@H]2C(=O)N[C@@H](Cc2cnc[nH]2)C(=O)N[C@@H](CC(C)C)C(=O)N2C[C@H](O)C[C@H]2C(=O)N[C@@H](Cc2c[nH]c3ccccc23)C(=O)N[C@@H](CO)C(=O)N[C@@H](Cc2c[nH]c3ccccc23)C(=O)N1C [Example 7054] ({CH2CO}-[Phe(4-Cl)][NMeA]NPHL[Hyp]WSW[NMeNle][NMeNle]RCG-NH2; thioether N-14)
6.76 to 30.3 nM | – | 4.78 to 72.9 nM | – | – | CCCC[C@H]1C(=O)N(C)[C@@H](CCCC)C(=O)N[C@@H]([C@@H](C)CC)C(=O)N[C@H](C(=O)NCC(N)=O)CSCC(=O)N[C@@H](Cc2ccccc2)C(=O)N(C)[C@@H](C)C(=O)N[C@@H](CC(N)=O)C(=O)N2CCC[C@H]2C(=O)N[C@@H](Cc2cnc[nH]2)C(=O)N[C@@H](CC(C)C)C(=O)N(C)CC(=O)N[C@@H](Cc2c[nH]c3ccccc23)C(=O)N[C@@H](CO)C(=O)N[C@@H](Cc2c[nH]c3ccccc23)C(=O)N1C [Example 5018] ({CH2CO}-F[NMeA]NPHL[Sar]WSW[NMeNle][NMeNle]ICG-NH2; thioether N-14)
